≈ marks a conversion by molar mass, not a printed value. Where “and” joins values, the source holds several entries; their conditions need not be identical. Equal values may be shown once.
Assays:
[1] = system: Candida albicans (ATCC 10231, fungus); assay: Minimum inhibitory concentration, microdilution assay; type: cell-based; conditions: for MIC C.A. / MIC: Candida albicans ~10^6 CFU/ml, YMB, room temperature, no visible growth; for MIC50 C.A. (value in brackets): Candida albicans, concentration inhibiting 50% fungal growth; for MIC: ATCC10231
Method: Staphylococcus aureus (ATCC 6538, Gram-positive), Escherichia coli (ATCC 8739, Gram-negative), Pseudomonas aeruginosa (ATCC 9027, Gram-negative), and Candida albicans (ATCC 10231, fungus) were used as representative microorganisms to challenge the antimicrobial functions of the oligomers. All bacteria and fungus were frozen at -80° C., and were grown overnight at 37° C. in Mueller Hinton Broth (MHB, BD Singapore) prior to experiments. Fungus was grown overnight at 22° C. in Yeast Mold Broth (YMB, BD Singapore). […] […] […] Medium solution containing microbial cells alone were used as control (100% microbial growth). The assay was performed in four replicates and the experiments were repeated at least two times.

[2] = Critical micelle concentration; type: physicochemical
[3] = system: mouse red blood cells (RBCs); assay: Hemolysis study; type: cell-based; conditions: oligomer concentration giving 10% hemolysis, 1 h, 37° C.
Method: After 1 h incubation at 37° C., the mixture was centrifuged at 2000 rpm for 5 min. Aliquots (100 μl) of the supernatant were transferred to a 96-well plate. Hemolytic activity was determined as a function of hemoglobin release by measuring absorbance of the supernatant at 576 nm using a microplate reader. A control solution that contained only PBS was used as a reference for 0% hemolysis. Absorbance of red blood cells lysed with 0.5% Triton-X was taken as 100% hemolysis. The oligomer concentration which results in 10% hemolysis is indicated as HC10 in Table 1. The data were expressed as mean and S.D. of four replicates. % Hemolysis=[OD576 nm (polymer)−OD576 nm (PBS)]/[OD576 nm (Triton-X)−OD576 nm (PBS)]×100%

[4] = system: Staphylococcus aureus (ATCC 6538, Gram-positive); assay: Minimum inhibitory concentration, microdilution assay; type: cell-based; conditions: lowest concentration with no visible growth; for MIC S.A.: 24 h
Method: (§1) Staphylococcus aureus (ATCC 6538, Gram-positive), Escherichia coli (ATCC 8739, Gram-negative), Pseudomonas aeruginosa (ATCC 9027, Gram-negative), and Candida albicans (ATCC 10231, fungus) were used as representative microorganisms to challenge the antimicrobial functions of the oligomers. All bacteria and fungus were frozen at -80° C., and were grown overnight at 37° C. in Mueller Hinton Broth (MHB, BD Singapore) prior to experiments. Fungus was grown overnight at 22° C. in Yeast Mold Broth (YMB, BD Singapore). […] The plates were incubated at 37° C. for 24 h with constant shaking speed at 300 rpm. […] Medium solution containing microbial cells alone were used as control (100% microbial growth). The assay was performed in four replicates and the experiments were repeated at least two times.

[5] = system: Escherichia coli (ATCC 8739, Gram-negative); assay: as above; type: cell-based; conditions: lowest concentration with no visible growth; for MIC E.C.: 24 h
Method: as §1

[6] = system: Pseudomonas aeruginosa (ATCC 9027, Gram-negative); assay: as above; type: cell-based; conditions: lowest concentration with no visible growth; for MIC P.A.: 24 h
Method: as §1

C. albicans = assay: Checkerboard assay of oligomers with triazoles (FIC); type: cell-based; conditions: Candida albicans; for FIC with Fluconazole: calculated from lowest concentration inhibiting at least 50% growth; for Alone MIC50 component A: oligomer alone
Method: […]. […] A row and a column in which a serial dilution of each agent was present alone were also prepared for MIC test. Then each solution in the well plate was inoculated with 100 μL of logarithmically grown 10^6 cells/ml C. albicans cells in the 96-well plate. The plate also contained a column with C. albicans only as control (100% cell growth). The cells were incubated at room temperature for 24 h with constant shaking, after which cell growth (i.e. the O.D. at 600 nm) was monitored with a microplate reader (TECAN) Synergy between fluconazole and oligomers was determined by calculating the fractional inhibitory concentration index ([…] was calculated as follows: FIC=(MIColigomer A in combination/MIColigomer A alone)+(MICazole B in combination/MICazole B alone). […] The interaction of selected oligomers with other triazoles such as itraconazole and voriconazole was also investigated using the checkerboard dilution method. For comparison, the interaction of the selected oligomer with a non-triazole antifungal agent […] was also investigated.

Candida albicans = assay: Killing efficacy of selected oligomers at 62 μg/ml (FIG. 1); type: cell-based; conditions: 62 μg/ml; survivors at 24 h compared with 0 h
[7] = oligomer in combination with Fluconazole
[8] = oligomer with Fluconazole (Table 2)
[9] = triazole in combination with IDPBX8
[10] = triazole in combination with IDPPX8

Compound | MIC C.A. [1] [µg/mL] | MIC50 C.A. (value in brackets) [1] | CMC [2] [µg/mL] | HC10 [3] [µg/mL] | MIC S.A. [4] [µg/mL] | MIC E.C. [5] [µg/mL] | MIC P.A. [6] [µg/mL] | FIC with Fluconazole (C. albicans) | further results
CCCCCCCC[N+]12CC[N+](C/C=C/C[N+]34CC[N+](CCCCCCCC)(CC3)CC4)(CC1)CC2.[Br-].[Br-].[Br-].[Br-] [DDB8] | 125 | (16) μg/ml | 1552 | >2000 | 4 | 8 | 125 | 0.25 | Fungistatic or fungicidal (Candida albicans): fungistatic
CCCCCCCC[N+]12CC[N+](Cc3ccccc3C[N+]34CC[N+](CCCCCCCC)(CC3)CC4)(CC1)CC2.[Br-].[Br-].[Br-].[Br-] [DDO8] | 125 | (16) μg/ml | 3038 | >2000 | 4 | 8 | 62 | 0.38 | 
CCCCCCCC[N+]12CC[N+](Cc3ccc(C[N+]45CC[N+](CCCCCCCC)(CC4)CC5)cc3)(CC1)CC2.[Br-].[Br-].[Br-].[Br-] [DDP8] | 500 | (31) μg/ml | 1896 | >2000 | 16 | 16 | 2000 | 0.19 | 
CCCCCCCC[n+]1ccn(Cc2ccc(C[n+]3ccn(Cc4ccc(C[n+]5ccn(Cc6ccccc6Cn6cc[n+](Cc7ccc(Cn8cc[n+](Cc9ccc(Cn%10cc[n+](CCCCCCCC)c%10)cc9)c8)cc7)c6)c5)cc4)c3)cc2)c1 [IBN-C8, reference compound] |  |  | 226 | >2000 |  |  |  | 2.00 | MIC [1]: 16 µg/mL; MIC ([4]; ATCC6538, 24 h): 4 µg/mL; MIC ([5]; ATCC8739, 24 h): 8 µg/mL; MIC ([6]; ATCC9027, 24 h): 16 µg/mL
CCCCCCCC[n+]1ccn(CC=CC[N+]23CC[N+](CC=CCn4cc[n+](CCCCCCCC)c4)(CC2)CC3)c1.[Br-].[Br-].[Br-].[Br-] [IDIB8] | >500 | (32) μg/ml | 1829 | >2000 | 8 | 16 | 500 | 0.25 | 
CCCCCCCC[n+]1ccn(Cc2ccccc2C[N+]23CC[N+](Cc4ccccc4Cn4cc[n+](CCCCCCCC)c4)(CC2)CC3)c1.[Br-].[Br-].[Br-].[Br-] [IDIO8] | 62 | (32) μg/ml | 1667 | >2000 | 8 | 16 | 250 | 0.25 | 
CCCCCCCC[n+]1ccn(Cc2ccc(C[N+]34CC[N+](Cc5ccc(Cn6cc[n+](CCCCCCCC)c6)cc5)(CC3)CC4)cc2)c1.[Br-].[Br-].[Cl-].[Cl-] [IDIP8] | 125 | (8) μg/ml | 985 | >2000 | 2 | 16 | 1000 | 0.25 | 
C(=C\C[N+]12CC[N+](Cc3ccc(C[n+]4ccn(Cc5ccccc5)c4)cc3)(CC1)CC2)/C[N+]12CC[N+](Cc3ccc(C[n+]4ccn(Cc5ccccc5)c4)cc3)(CC1)CC2 [IDPBXb] | >1000 | (1000) μg/ml | 1732 | >2000 | 125 | 62 | >1000 |  | 
CCCCCCCC[n+]1ccn(Cc2ccc(C[N+]34CC[N+](Cc5ccc(C[N+]67CC[N+](Cc8ccc(Cn9cc[n+](CCCCCCCC)c9)cc8)(CC6)CC7)cc5)(CC3)CC4)cc2)c1.[Br-].[Br-].[Br-].[Br-].[Br-].[Br-] [IDPPX8] | 62 | (8-31) μg/ml | 1552 | >2000 | 8 | 62 | 500 | 0.25 | Interaction when applied together with voriconazole (C. albicans): Synergy; Alone MIC50 component A (C. albicans): 16 µg/mL; Combined MIC50 component A (C. albicans; [7]): 2 µg/mL; Combined MIC50 component A (C. albicans; oligomer in combination with Itraconazole): 4 µg/mL; Combined MIC50 component A (C. albicans; oligomer in combination with Voriconazole): 4 µg/mL; FIC (C. albicans; [8]): 0.19; FIC (C. albicans; oligomer with Itraconazole): 0.50; FIC (C. albicans; oligomer with Voriconazole): 0.30; Fungistatic or fungicidal (Candida albicans): fungistatic
c1ccc(Cn2cc[n+](Cc3ccc(C[N+]45CC[N+](Cc6ccc(C[N+]78CC[N+](Cc9ccc(C[n+]%10ccn(Cc%11ccccc%11)c%10)cc9)(CC7)CC8)cc6)(CC4)CC5)cc3)c2)cc1 [IDPPXb] | 2000 | (500) μg/ml | 1860 |  | 125 | 62 | >1000 | 0.5 | 
CCCCCCCC[n+]1ccn(Cc2ccc(Cn3cc[n+](C/C=C/C[N+]45CC[N+](C/C=C/C[n+]6ccn(Cc7ccc(Cn8cc[n+](CCCCCCCC)c8)cc7)c6)(CC4)CC5)c3)cc2)c1.[Br-].[Br-].[Br-].[Br-].[Br-].[Br-] [IIDPBX8] | 62 | (8) μg/ml | 291 | >2000 | 4 | 62 | 250 | 0.31 | 
CCCCCCCC[n+]1ccn(Cc2ccc(Cn3cc[n+](Cc4ccc(C[N+]56CC[N+](C/C=C/C[N+]78CC[N+](Cc9ccc(C[n+]%10ccn(Cc%11ccc(Cn%12cc[n+](CCCCCCCC)c%12)cc%11)c%10)cc9)(CC7)CC8)(CC5)CC6)cc4)c3)cc2)c1.[Br-].[Br-].[Br-].[Br-].[Br-].[Br-].[Br-].[Br-] [IIDPPBX8] | 31 | (2-8) μg/ml | 727 | >2000 | 8 | 31 | 125 | 1.00 | Alone MIC50 component A (C. albicans): 2 µg/mL; Combined MIC50 component A (C. albicans; [7]): 1 µg/mL; FIC (C. albicans; [8]): 1.0
C[C@@H](c1ncncc1F)[C@](O)(Cn1cncn1)c1ccc(F)cc1F [Voriconazole, voriconazole, reference compound] |  |  |  |  |  |  |  |  | MIC [1]: 0.025 to 0.1 µg/mL (≈ 0.0716 to 0.286 µM); Combined MIC50 component B (C. albicans; [9]): 6 ng/mL; Combined MIC50 component B (C. albicans; [10]): 3 ng/mL
itraconazole [reference compound] | 0.016 to 0.03 |  |  |  |  |  |  |  | Alone MIC50 component B (C. albicans; triazole alone): 0.016 µg/mL and 0.03 µg/mL; Combined MIC50 component B (C. albicans; [9]): 15 ng/mL; Combined MIC50 component B (C. albicans; [10]): 4 ng/mL

Source: US20220022457A1, “Microbicide Ammonium-Imidazolium Oligomers and Their Anti-Fungal Compositions” (AGENCY FOR SCIENCE, TECHNOLOGY AND RESEARCH, priority 2018, published 2022)
